Experiment [1] relates to MATIN. Description: Post-emergence action against MATIN. The class given is in vivo, Matricaria inodora. As to conditions: Tripleurospermum inodorum, 504 h; post-emergence, dosage 80 g/ha, visual assessment about 3 weeks after treatment vs untreated controls; read-out: Post-emergence action against MATIN (herbicidal action in percent). Summed up: (§1)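 Weeds grown in sandy loam in greenhouse, treated at one-leaf stage (2–3 weeks after sowing) with WP or EC formulations sprayed as aqueous suspension/emulsion at 600 to […] water with 0.2% wetting agent. Visual rating after about 3 weeks versus untreated controls, as % herbicidal action (100% = plants dead, 0% = like control).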

The subject of experiment [2] is POLCO. Kind of experiment: Pre-emergence action against POLCO. In kind it is in vivo, Polygonum convolvulus. As to conditions: Fallopia convolvulus, 504 h; Dosage 320 g/ha, pre-emergence. Summed up: (§2)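 Seeds sown in sandy loam in wood-fiber pots and covered with soil. Greenhouse growth; visual damage scored after 3 weeks versus untreated controls (100% = dead, 0% = like control).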

Experiment [3] concerns SETVI. Kind of experiment: Post-emergence action against SETVI. In kind it is in vivo, Setaria viridis. As to conditions: Setaria viridis, 504 h; post-emergence, dosage 80 g/ha, visual assessment about 3 weeks after treatment vs untreated controls; read-out: Post-emergence action against SETVI (herbicidal action in percent). The procedure, abridged:
as §1

Experiment [4] has as its system DIGSA. Kind of experiment: Post-emergence action against DIGSA. The class given is in vivo, Digitaria sanguinalis. As to conditions: dosage 80 g/ha, visual assessment about 3 weeks after treatment vs untreated controls. On the procedure: Seeds of monocotyledonous and dicotyledonous weed and crop plants are laid out in sandy loam soil in wood-fiber pots, covered with soil and cultivated in a greenhouse under good growth conditions. 2 to 3 weeks after sowing, the test plants are treated at the one-leaf stage. The compounds of the invention, formulated in the form of wettable powders (WP) or as emulsion concentrates (EC), are then sprayed onto the green parts of the plants in the form of an aqueous suspension or emulsion at a water application rate equating to […], with addition of 0.2% wetting agent. After the test plants have been left to stand in the greenhouse under optimal growth conditions for about 3 weeks, the action of the preparations is assessed visually in comparison to untreated controls (herbicidal action in percent (%): 100% activity=the plants have died, 0% activity=like control plants). […] At the same time, inventive compounds leave Gramineae crops such as barley, wheat, rye, millet/Sorghum, corn or rice virtually undamaged when applied post-emergence, even at high active ingredient dosages. In addition, some substances are also harmless to dicotyledonous crops such as soya, cotton, oilseed rape, sugar beet or potatoes. Some of the compounds according to the invention have high selectivity and are therefore suitable for controlling unwanted vegetation in agricultural crops by the post-emergence method. The data of Tables B18 to B34 below illustrate, in an exemplary manner, the […] herbicidal action of the compounds according to the invention, the herbicidal activity being stated in percent.

Experiment [5] deals with ABUTH. Kind of experiment: Post-emergence action against ABUTH. The class given is in vivo, Abutilon theophrasti. As to conditions: Abutilon theophrasti, 504 h; post-emergence, dosage 80 g/ha, visual assessment about 3 weeks after treatment vs untreated controls; read-out: Post-emergence action against ABUTH (herbicidal action in percent). Summed up: as §1
For experiment [6], the system named is AVEFA. Kind of experiment: Pre-emergence action against AVEFA. As to conditions: Avena fatua, 504 h, dosage 320 g/ha, scored visually after 3 weeks vs untreated controls, read-out: Pre-emergence action against AVEFA (herbicidal activity). The class given is in vivo, Avena fatua. The procedure, abridged:
as §2

The subject of experiment [7] is PHBPU. Kind of experiment: Pre-emergence action against PHBPU. The class given is in vivo, Pharbitis purpurea. As to conditions: Ipomoea purpurea, 504 h; Dosage 320 g/ha, pre-emergence. Summed up:
as §2

The test system of experiment [8] is ECHCG. Description: Post-emergence action against ECHCG. As to conditions: Echinochloa crus-galli, 504 h; post-emergence, dosage 80 g/ha, visual assessment about 3 weeks after treatment vs untreated controls; read-out: Post-emergence action against ECHCG (herbicidal action in percent). The class given is in vivo, Echinochloa crus-galli. The procedure, abridged:
as §1

Experiment [9] has as its system VERPE. Description: Pre-emergence action against VERPE. In kind it is in vivo, Veronica persica. As to conditions: Veronica persica, 504 h; Dosage 320 g/ha, pre-emergence. Summed up: as §2
For experiment [10], the system named is ECHCG. Kind of experiment: Pre-emergence action against ECHCG. In kind it is in vivo, Echinochloa crus-galli. As to conditions: Echinochloa crus-galli, 504 h; pre-emergence, dosage 320 g/ha, scored visually after 3 weeks vs untreated controls; read-out: Pre-emergence action against ECHCG (herbicidal activity). The procedure, abridged:
as §2

The subject of experiment [11] is HORMU. Kind of experiment: Pre-emergence action against HORMU. The class given is in vivo, Hordeum murinum. As to conditions: Hordeum murinum, 504 h, Dosage 320 g/ha. Summed up:
as §2

Experiment [12] deals with SETVI. Description: Pre-emergence action against SETVI. The class given is in vivo, Setaria viridis. As to conditions: Setaria viridis, 504 h; pre-emergence, dosage 320 g/ha, scored visually after 3 weeks vs untreated controls; read-out: SETVI (Table B8, pre-emergence herbicidal activity). The procedure, abridged: as §2
Experiment [13] deals with VIOTR. Description: Post-emergence action against VIOTR. The class given is in vivo, Viola tricolor. As to conditions: Viola tricolor, 504 h; post-emergence, dosage 80 g/ha. Summed up: as §1
For experiment [14], the system named is AMARE. Description: Pre-emergence action against AMARE. The class given is in vivo, Amaranthus retroflexus. As to conditions: Amaranthus retroflexus, 504 h; pre-emergence, dosage 320 g/ha, scored visually after 3 weeks vs untreated controls; read-out: Pre-emergence action against AMARE (herbicidal activity). Summed up: as §2
Experiment [15] has as its system AMARE. Kind of experiment: Post-emergence action against AMARE. In kind it is in vivo, Amaranthus retroflexus. As to conditions: Amaranthus retroflexus, 504 h; post-emergence, dosage 80 g/ha, visual assessment about 3 weeks after treatment vs untreated controls; read-out: Post-emergence action against AMARE (herbicidal action in percent). The procedure, abridged: as §1

In experiment [16] the test system is PHBPU. Kind of experiment: Post-emergence action against PHBPU. In kind it is in vivo, Pharbitis purpurea. As to conditions: Ipomoea purpurea, 504 h; post-emergence, dosage 80 g/ha. The procedure, abridged: as §1
For experiment [17], the system named is ABUTH. Kind of experiment: Pre-emergence action against ABUTH. The class given is in vivo, Abutilon theophrasti. As to conditions: Abutilon theophrasti, 504 h; pre-emergence, dosage 320 g/ha, scored visually after 3 weeks vs untreated controls; read-out: Pre-emergence action against ABUTH (herbicidal activity). The procedure, abridged:
as §2

Experiment [18] deals with VIOTR. Description: Pre-emergence action against VIOTR. In kind it is in vivo, Viola tricolor. As to conditions: Viola tricolor, 504 h; Dosage 320 g/ha, pre-emergence. Summed up: as §2
The subject of experiment [19] is STEME. Kind of experiment: Post-emergence action against STEME. The class given is in vivo, Stellaria media. As to conditions: Stellaria media, 504 h; post-emergence, dosage 80 g/ha. The procedure, abridged:
as §1

The test system of experiment [20] is STEME. Description: Pre-emergence action against STEME. The class given is in vivo, Stellaria media. As to conditions: Stellaria media, 504 h; Dosage 320 g/ha, pre-emergence. Summed up: as §2
Experiment [21] deals with ALOMY. Kind of experiment: Pre-emergence action against ALOMY. As to conditions: Alopecurus myosuroides, 504 h; dosage 320 g/ha; pre-emergence; scored visually after 3 weeks vs untreated controls; 100% = plants have died, 0% = like control plants; read-out: Pre-emergence action against ALOMY (herbicidal activity in percent). In kind it is in vivo, Alopecurus myosuroides. The procedure, abridged:
as §2

Experiment [22] concerns DIGSA. Description: Pre-emergence action against DIGSA. In kind it is in vivo, Digitaria sanguinalis. As to conditions: dosage 320 g/ha, scored visually after 3 weeks vs untreated controls. The procedure, abridged: as §2
Experiment [23] has as its system MATIN. Description: Pre-emergence action against MATIN. The class given is in vivo, Matricaria inodora. As to conditions: Tripleurospermum inodorum, 504 h; Dosage 320 g/ha, pre-emergence. The procedure, abridged:
as §2

The subject of experiment [24] is VERPE. Kind of experiment: Post-emergence action against VERPE. In kind it is in vivo, Veronica persica. As to conditions: Veronica persica, 504 h, dosage 80 g/ha. The procedure, abridged: as §1

Experimental findings from US11051515B2, “3-acyl-benzamides and their use as herbicides” (Bayer Aktiengesellschaft, priority 2017, dated 2021) are described below.

Take `CC(=O)C(=O)c1c(C(F)(F)F)ccc(C(=O)Nc2nnnn2C)c1Cl` [1-146]: the pest or weed control at 80 g/ha in experiment [1] came to 90%; in experiment [3] it was 100%; in [5], 100%; in experiment [8], 100%; in experiment [13] it was 90%; in experiment [15], 100%. For the same compound, the values for the pest or weed control at 80 g/ha in experiment [16], in experiment [19] and in [24] were 80%, 100% and 90%, respectively. Further, the pest or weed control at 320 g/ha came out at 80% in experiment [2]; 90% in [6]; 90% in experiment [7]; 90% in [9]; 100% in [10]; 80% in experiment [11]. For the same compound, the pest or weed control at 320 g/ha in [12] is 100%; in [14] it was 100%; in experiment [17], 100%; in [18], 100%; in experiment [20] it was 100%; in experiment [21] it was 90%. Besides, the pest or weed control at 320 g/ha in experiment [23] turned out to be 100%. Moreover, the “Post-emergence action against DIGSA (herbicidal action in percent)” value in experiment [4] is on record as 80%. Moreover, in experiment [22], the “Pre-emergence action against DIGSA (herbicidal activity)” value is given as 100%.
